In PubChem BioAssay (NCI) one finds TGI and GI50 data, which are given here for 33 compounds.

Assay in all cases: NCI anticancer screen, dose series, 48 h
Assay [1] deals with SF-295 CNS.
For assay [2], the system named is SK-OV-3 ovarian.
The subject of assay [3] is SK-MEL-2 melanoma.
Assay [4] deals with TK-10 renal.
Assay [5] concerns SN12C renal.
Assay [6] concerns UACC-257 melanoma.
The subject of assay [7] is OVCAR-3 ovarian.
In assay [8] the test system is NCI/ADR-RES ovarian.
Assay [9] relates to PC-3 prostate.
In assay [10] the test system is MDA-MB-231 breast.

Several values for one entry are separate records, joined by “and”; a condition that tells them apart may be missing. Equal values may be shown once.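 Test compounds were applied to cells in 96-well plates for 48 hours at 5 doses. At the GI50, growth is halved. Definition used: TGI = concentration required for complete inhibition of growth.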

In the case of `COC1CCC2C(NS(=O)(=O)c3ccc(C)cc3)CCCC2O1` (stereo unspecified) (tested in a mixture with another compound), the TGI was 21.4 µM in [1]; above 34.5 µM in assay [2]; above 34.5 µM in assay [3]; above 34.5 µM in assay [4]; above 34.5 µM in assay [5]; above 34.5 µM in assay [6]. The TGI in assay [7] was above 34.5 µM.

As to `C/C(CC(=O)CCC(=O)Nc1cccc(C(F)(F)F)c1)=N\NC(=O)NN`, the TGI in assay [1], in assay [2], in assay [3], in [4], in assay [5] and in assay [6] was above 100 µM in each case. Besides, in assay [7], the TGI was above 100 µM.

In the case of `CCOC(=O)CN1C(=O)c2cccc3cc([N+](=O)[O-])cc(c23)C1=O`, the TGI in [2] amounted to 41 µM; in assay [3], 2.87 µM; in assay [4], 30.7 µM; in [5], 17.2 µM; in [6] it was 7.73 µM; in assay [7], 14.9 µM.

In the case of `Cc1cc(C)nc(NS(=O)(=O)c2ccc(NC(=O)c3ccc(Cl)c4c(Nc5ccc(S(=O)(=O)Nc6nc(C)cc(C)n6)cc5)c5ccccc5nc34)cc2)n1`, the TGI in [1] was above 100 µM; in [2] it was 76.5 µM; in assay [3], above 100 µM; in [4] it was 83.1 µM; in assay [5], above 100 µM; in assay [6], 81.6 µM. In assay [7], this compound had a TGI above 100 µM.

Consider `O=CN/C=C/c1cc(O)ccc1O`, for which the TGI in assay [8] is 42.1 µM; in assay [1], above 100 µM; in assay [2], above 90.5 µM; in [3], above 71.9 µM; in assay [4] it was 31.6 µM; in [5], 31.3 µM. Besides, the figures for the TGI in assay [6], in assay [9] and in assay [7] were 27.8 µM, above 100 µM and 22.5 µM, respectively.

As to `O=C1/C(=C/c2ccccc2)CN(C(=O)C(Cl)(Cl)Cl)C/C1=C\c1ccccc1`, the TGI in [1] is 3.24 µM; in [3] it was 10.3 µM; in assay [4], 8.72 µM; in assay [5], 3.12 µM; in assay [6], 2.92 µM; in [7], 7.88 µM.

Take `N#CC(c1ccc(Cl)cc1)c1cccc(C(C#N)c2ccc(Cl)cc2)n1` (stereo unspecified): the TGI was above 100 µM in [1]; above 100 µM in assay [2]; 83.2 µM in [3]; 69.9 µM in [4]; above 100 µM in assay [5]; above 100 µM in assay [6]. This compound displayed a TGI in assay [7] above 100 µM.

Consider `CN(C)C(=N)c1ccccc1`, for which the TGI in assay [1], in assay [3], in [4], in assay [5], in assay [6] and in assay [7] was above 100 µM in each case.

In the case of `O=C(O)c1ccccc1[Se][Se]c1ccccc1C(=O)O`, the TGI in [1], in assay [2], in assay [3], in assay [4], in assay [5] and in [6] was above 100 µM each time. This compound also showed a TGI in assay [7] above 100 µM.

Take `O=C(COc1ccc(Br)cc1Br)N1N=C(c2ccc([N+](=O)[O-])o2)CC1(O)c1ccccc1` (stereo unspecified): the TGI is 53.7 µM in [1]; above 100 µM in assay [2]; 31.3 µM in [3]; 25.7 µM in assay [5]; 45.4 µM in assay [6]; 20.2 µM in [7].

For `COC(=O)[C@@H]1[C@H](O)[C@H](C)[C@H](O)[C@@](C)(O)/C=C\C=C(C)C(=O)Nc2c(C)c(OC(C)=O)c3c(c2O)C(=O)C(C)=C2OCOC(=C23)C(C)=C[C@@](C)(O)[C@H](O)[C@@H](C)[C@H]1OC(C)=O`, the GI50 in [1] is above 66.9 µM; in assay [2], above 66.9 µM; in assay [5] it was 49.8 µM; in [6], 35.2 µM; in assay [7], 56.5 µM. The TGI in assay [1] was above 100 µM; in assay [2], above 100 µM; in assay [3] it was > 100 µM and 66.9 µM and 96.3 µM; in [4] it was above 100 µM; in assay [5], > 100 µM and 66.9 µM; in [6] it was > 100 µM and 66.9 µM and 93.1 µM. For the same compound, the TGI was above 66.9 µM in [9]; 87.6 µM and 66.9 µM and > 100 µM in assay [7].

Take `O=C(O)CCc1coc2ccc(O)cc12`: the TGI in assay [1], in [2], in assay [4], in assay [5], in assay [6] and in assay [7] was above 100 µM throughout.

As for `COc1ccc2c3c1C(=O)CCCC3CO2` (stereo unspecified), the TGI in [1], in assay [2], in assay [3], in assay [4], in assay [5] and in [6] was above 100 µM each time. Further, the TGI in assay [7] is above 100 µM.

As for `C=C1C(=O)C23CC1CCC2C12CO[C@@H]4OCC(C)(CC[C@@H]1OC3=O)C42` (stereo partly specified), the TGI amounted to 30.9 µM in [1]; 40.1 µM in assay [2]; 16.9 µM in assay [3]; 13.8 µM in assay [4]; 21.3 µM in assay [5]; 10.2 µM in assay [6]. This compound returned a TGI in [7] of 16.6 µM.

In the case of `COc1ccccc1C12OC(=O)C1(C)Oc1ccccc1C2=O` (stereo unspecified), the TGI in [1], in assay [2], in assay [3], in [4], in assay [5] and in assay [6] was above 100 µM each time. The compound further yielded a TGI in assay [7] above 100 µM.

Turning to `O=S1(=O)c2ccccc2NC(c2ccc3ccccc3c2)CC1c1ccccc1F` (stereo unspecified), the TGI in assay [1], in [2], in assay [3], in [4], in [5] and in assay [6] was above 100 µM throughout. This compound also registered a TGI in assay [7] above 100 µM.

As to `COC(CN1C(=O)c2cccc3cccc(c23)C1=O)OC`, the TGI in assay [1] was above 100 µM; in assay [2], above 100 µM; in assay [3], 86.3 µM; in assay [4] it was above 100 µM; in assay [5] it was above 100 µM; in [6], above 100 µM. The compound also displayed a TGI in assay [7] above 100 µM.

For the compound `Clc1cc2nsnc2c(Cl)n1`, the TGI in assay [1] is above 100 µM; in [2], above 100 µM; in assay [3] it was 34 µM; in [4] it was 44 µM; in assay [6] it was 72.3 µM; in assay [7], 33.4 µM.

In the case of `O=C(/C=C/c1ccccc1)NC1C=Nc2ccc(Cl)cc2NC1=O` (stereo unspecified), the TGI in assay [1] is above 100 µM; in assay [2], above 100 µM; in assay [3], above 100 µM; in assay [4] it was above 100 µM; in [5] it was above 100 µM; in [6] it was 87 µM. This compound registered a TGI in [7] of 56.4 µM.

In the case of `COc1cc(CNc2cnc3cc(N)cc(N)c3n2)cc(OC)c1`, the GI50 in assay [8] is 34.3 µM; in assay [1], 26.5 µM; in assay [3], 66.7 µM; in [4], 18.4 µM; in assay [10], 5.58 µM; in [5], 15.2 µM. The GI50 in assay [9] is 15.1 µM; in assay [7], 19.6 µM. Besides, the TGI was above 100 µM in [8]; 71.9 µM in assay [1]; above 100 µM in assay [3]; 57.6 µM in assay [4]; 20.4 µM in [10]; 33.3 µM in assay [5]. The results for the TGI in assay [9] and in assay [7] were 35.2 µM and 48.3 µM, respectively.

On to `O=C(CC1(O)C(=O)Nc2c(Cl)cc(Cl)cc21)c1ccc(Br)cc1Br` (stereo unspecified), for which the TGI was 34.9 µM in [1]; 44.2 µM in assay [2]; 28.9 µM in assay [3]; 32 µM in [4]; 41.3 µM in assay [10]; 28.5 µM in assay [5]. Also, the TGI was 22.9 µM in [6], 31.4 µM in assay [9] and 43.8 µM in assay [7].

As for `CCOc1ccc(NC(=O)C(=O)CC(=O)c2c[n+](=O)c3cc(C)c(C)cc3n2[O-])cc1`, the TGI in assay [1], in assay [2], in [3], in [4], in [5] and in assay [6] was above 100 µM each time. The same compound gave a TGI in assay [7] above 100 µM.

Consider `CN1C(=O)C(C)(C)C2(SC(C)(C)C2(C)C)N(C)C1=S` (stereo unspecified), for which the TGI in assay [1], in assay [2], in assay [3], in [5], in assay [6] and in [7] was above 100 µM in each case.

As for `COC1(OC)CCC2C1C1CCC(OC)(OC)C21` (stereo unspecified), the TGI in assay [1], in assay [2], in assay [3], in assay [5], in assay [6] and in [7] was above 50 µM in each case.

As to `N#CCCN(CCC#N)c1ccc(/C=C2\N=C(c3cc([N+](=O)[O-])ccc3Cl)OC2=O)cc1`, the TGI in assay [1] is above 100 µM; in assay [2] it was above 100 µM; in assay [3], 38.1 µM; in [5] it was 37.8 µM; in assay [6] it was 44.1 µM; in assay [7], 70.7 µM.

For `CC(C)=CC(=O)C1c2cccc(O)c2C(=O)c2c(O)cc(C)cc21` (stereo unspecified), the TGI was 3.39 µM in assay [1]; 8.48 µM in assay [2]; 3.6 µM in assay [3]; 7.83 µM in assay [4]; 25.4 µM in [5]; 8.5 µM in assay [6]. The compound also came in with a TGI in assay [7] of 3.7 µM.

As to `O=C1C2C(C(=O)N1OS(=O)(=O)c1ccccc1)N(Cc1ccccc1)C(=O)N2Cc1ccccc1` (stereo unspecified), the TGI in assay [1], in assay [2], in [4], in [5], in assay [6] and in assay [7] was above 100 µM each time.

As for `Cc1ccc(N=Nc2ccc(N(CCC#N)CCC#N)cc2C)c(Br)c1`, the TGI in assay [1] is 93.1 µM; in [2], above 100 µM; in assay [3] it was above 100 µM; in assay [4] it was 66.3 µM; in [5] it was above 100 µM; in assay [6], above 100 µM. This compound also came in with a TGI in [7] above 100 µM.

On to `COC(=O)CC1CCN(C#N)CC1CC[N+](=O)[O-]` (stereo unspecified), for which the TGI in [2], in assay [3], in [4], in assay [5], in assay [6] and in assay [7] was above 100 µM throughout.

`COc1cc2c(cc1OC)-c1c3cc(O)ccc3nn[n+]1CC2`: the TGI in assay [1], in assay [2], in [4], in [5] and in assay [7] was above 100 µM in each case.

Turning to `CC(C)C/C(CC(=O)CCC(=O)Nc1ccccc1[N+](=O)[O-])=N\NC(=O)c1cc2ccccc2cc1O`, the TGI in assay [1] was 99.8 µM; in [2] it was above 100 µM; in assay [4], above 100 µM; in assay [5], above 100 µM; in [6] it was above 100 µM; in [7] it was 99.3 µM.

As to `CCCCCCCCCCCCCCCCCC(CCCCCCCCCCCCCCCCC)OP(=O)(O)O`, the TGI in assay [1], in assay [2], in assay [3], in assay [4], in [5] and in assay [6] was above 100 µM each time. The same compound returned a TGI in [7] above 100 µM.

On to `Cc1nc2ccccc2c(=O)n1-c1ccccc1I`, for which the TGI in assay [1], in assay [2], in assay [3], in assay [4], in [5] and in assay [6] was above 100 µM each time. The compound further came in with a TGI in [7] above 100 µM.
